Data as given in patent publication US20090246292A1, “ANTIMICROBIAL FORMULATIONS COMPRISING A QUINONE AND A COPPER SALT” (priority 2006, published 2009).
Where two headings read alike, the source gives them in different places.

Experiments:
P. acnes NCTC 737 [1] = experiment: Minimum inhibitory concentration (MIC) assay; format: cell-based, Propionibacterium acnes
Excerpt: (§1) (a) Minimum Inhibitory Concentration (MIC) Assay
(§2) The culture media were as described above.
(§3) The assays included both negative (culture medium with no micro-organisms) and positive (culture medium plus diluting solvent plus micro-organism) controls.

P. acnes NCTC 737 [2] = experiment: Synergy disc diffusion assay (SDDA), also supplemented
Protocol: The propionibacteria were cultured and maintained on Wilkins-Chalgren Anaerobe Medium (agar and broth) at pH 6.0; all cultures were incubated anaerobically at 37° C. for 72 hours.
(e) Synergy Disc Diffusion Assay (SDDA)
(§6) This is a variation on the DDA method, in which two compounds are tested together for their combined antimicrobial activity.
(§7) Two test compounds A and B were placed on a single paper disc and the above described DDA procedure repeated.
(f) Supplemented Disc Diffusion Assays
For assays using Propionibacterium spp. strains the supplements used in the examples below were lipid (either Tween™ 80 or triolein, both at 1% v/v) and sodium chloride (100 mM).

P. acnes NCTC 737 [3] = experiment: Disc diffusion assay (DDA), also supplemented;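 also: paper disc carrying compound placed on inoculated Wilkins-Chalgren Anaerobe agar pH 6.0, with lipid or NaCl supplement where listed, anaerobic 37 °C for 72 h, inhibition zone diameter read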
S. aureus ATCC 29213 [4] = experiment: Synergy disc diffusion assay (SDDA), also supplemented;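 also: disc diffusion on Mueller-Hinton agar at pH 7.2, aerobic incubation at 37 °C lasting 19-20 h, two compounds assessed jointly for combined antimicrobial effect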
Protocol: (e) Synergy Disc Diffusion Assay (SDDA)
as §6, §7
(f) Supplemented Disc Diffusion Assays
For assays using S. aureus ATCC 29213 the supplements used were sodium chloride (100 mM), lipid (Tween™ 80 at 1% v/v) and horse serum (5% v/v).

S. aureus ATCC 29213 [5] = experiment: Minimum bactericidal concentration (MBC) assay; format: cell-based, Staphylococcus aureus
Protocol: (§4) (b) Minimum Bactericidal Concentration (MBC) Assay
(§5) Following incubation they were examined visually for bacterial growth.

P. acnes NCTC 737 [6] = experiment: Minimum bactericidal concentration (MBC) assay; format: cell-based, Propionibacterium acnes
Protocol: as §4, §5

S. aureus ATCC 29213 [7] = experiment: Disc diffusion assay (DDA), also supplemented
S. aureus ATCC 29213 [8] = experiment: Minimum inhibitory concentration (MIC) assay; format: cell-based, Staphylococcus aureus
Excerpt: as §1, §2, §3

[9] = copper salt alone, P. acnes NCTC 737
[10] = copper salt + TBHQ on one disc, 200 μg of each (silicate 62 μg), salt and lipid (1% (v/v) Tween 80)
[11] = copper salt + TBHQ on one disc, 200 μg of each (silicate 62 μg), unsupplemented
[12] = copper salt + TBHQ vs larger zone of either compound alone, unsupplemented
[13] = copper salt + TBHQ, salt and lipid (1% (v/v) Tween 80)
[14] = copper salt + TBHQ, unsupplemented
[15] = copper salt alone, 200 μg per disc (silicate 62 μg), 1% (v/v) Tween 80
[16] = copper salt alone, 200 μg per disc (silicate 62 μg), salt and 1% (v/v) Tween 80
[17] = copper salt alone, 200 μg per disc (silicate 62 μg), sodium chloride (100 mM)
[18] = copper salt + TBHQ on one disc, 200 μg of each (silicate 62 μg), salt and serum supplements
[19] = copper salt + TBHQ, salt and serum supplements
[20] = copper salt alone, S. aureus ATCC 29213
[21] = copper salt alone, 200 μg per disc (silicate 62 μg), Tween 80 at 1% v/v
[22] = copper salt alone, 200 μg per disc (silicate 62 μg), salt and horse serum (5% v/v)

Work on `O.O=C([O-])C(O)C(O)C(=O)[O-].[Cu+2]` (stereo not drawn) [Copper (II) tartrate hydrate] yielded an MIC (P. acnes NCTC 737 [1]) of 15.6 µg/mL, an MIC/MBC ratio (P. acnes NCTC 737 [1]) of 0.25 and an SDDA area increase (P. acnes NCTC 737 [2]) of 20.27%. The SDDA increase (P. acnes NCTC 737 [2]) was 4.8 mm, the “SDDA with TBHQ” value (P. acnes NCTC 737 [2]) was 54.44 mm and the “SL SDDA area increase” value (P. acnes NCTC 737 [2]) was 24.11%. For the same compound, the “SL SDDA increase” value (P. acnes NCTC 737 [2]) was 5.42 mm, the “SL SDDA with TBHQ” value (P. acnes NCTC 737 [2]) was 52.98 mm and the DDA (P. acnes NCTC 737 [3]) was 49.64 mm. For the same compound, the “DDA + lipid” value (P. acnes NCTC 737 [3]) was 38.35 mm, the “DDA + salt” value (P. acnes NCTC 737 [3]) was 48.25 mm and the “DDA + salt & lipid” value (P. acnes NCTC 737 [3]) was 47.56 mm. The SDDA area increase (S. aureus ATCC 29213 [4]) was −88.71%, the SDDA increase (S. aureus ATCC 29213 [4]) was −26.84 mm and the “SDDA with TBHQ” value (S. aureus ATCC 29213 [4]) was 13.58 mm. The “SS SDDA area increase” value (S. aureus ATCC 29213 [4]) was −94.19%, the “SS SDDA increase” value (S. aureus ATCC 29213 [4]) was −33.15 mm and the “SS SDDA with TBHQ” value (S. aureus ATCC 29213 [4]) was 10.53 mm. The MBC (S. aureus ATCC 29213 [5]) was greater than 250 µg/mL, the MBC (P. acnes NCTC 737 [6]) was 62.5 µg/mL and the DDA (S. aureus ATCC 29213 [7]) was 0 mm. The “DDA + lipid” value (S. aureus ATCC 29213 [7]) was 0 mm, the “DDA + salt” value (S. aureus ATCC 29213 [7]) was 0 mm and the “DDA + salt & serum” value (S. aureus ATCC 29213 [7]) was 0 mm. For the same compound, the MIC (S. aureus ATCC 29213 [8]) was greater than 250 µg/mL.
In the case of Copper (I) oxide, the MIC (P. acnes NCTC 737 [1]; [9]) is reported as 1.95 µg/mL, the MIC/MBC ratio (P. acnes NCTC 737 [1]; [9]) is reported as 0.06 and the “SL SDDA with TBHQ” value (P. acnes NCTC 737 [2]; [10]) is reported as 51.73 mm. The “SDDA with TBHQ” value (P. acnes NCTC 737 [2]; [11]) was 50.06 mm, the SDDA increase (P. acnes NCTC 737 [2]; [12]) was 1.25 mm and the “SL SDDA area increase” value (P. acnes NCTC 737 [2]; [13]) was 41.48%. For the same compound, the “SL SDDA increase” value (P. acnes NCTC 737 [2]; [13]) was 8.24 mm, the SDDA area increase (P. acnes NCTC 737 [2]; [14]) was 5.18% and the “DDA + lipid” value (P. acnes NCTC 737 [3]; [15]) was 37.42 mm. For the same compound, the “DDA + salt & lipid” value (P. acnes NCTC 737 [3]; [16]) was 43.49 mm, the “DDA + salt” value (P. acnes NCTC 737 [3]; [17]) was 44.85 mm and the “SS SDDA with TBHQ” value (S. aureus ATCC 29213 [4]; [18]) was 45.26 mm. The “SDDA with TBHQ” value (S. aureus ATCC 29213 [4]; [11]) was 57.05 mm, the SDDA increase (S. aureus ATCC 29213 [4]; [12]) was 16.63 mm and the “SS SDDA area increase” value (S. aureus ATCC 29213 [4]; [19]) was 7.37%. The “SS SDDA increase” value (S. aureus ATCC 29213 [4]; [19]) was 1.58 mm, the SDDA area increase (S. aureus ATCC 29213 [4]; [14]) was 99.21% and the MBC (S. aureus ATCC 29213 [5]; [20]) was greater than 250 µg/mL. For the same compound, the MBC (P. acnes NCTC 737 [6]; [9]) was 31.25 µg/mL, the “DDA + lipid” value (S. aureus ATCC 29213 [7]; [21]) was 0 mm and the “DDA + salt & serum” value (S. aureus ATCC 29213 [7]; [22]) was 0 mm. For the same compound, the “DDA + salt” value (S. aureus ATCC 29213 [7]; [17]) was 0 mm and the MIC (S. aureus ATCC 29213 [8]; [20]) was greater than 250 µg/mL.
For Copper (II) salicylate, the MIC (P. acnes NCTC 737 [1]) was 7.8 µg/mL, the MIC/MBC ratio (P. acnes NCTC 737 [1]) was 0.25 and the SDDA area increase (P. acnes NCTC 737 [2]) was 150.52%. The SDDA increase (P. acnes NCTC 737 [2]) was 27.84 mm, the “SDDA with TBHQ” value (P. acnes NCTC 737 [2]) was 75.61 mm and the “SL SDDA area increase” value (P. acnes NCTC 737 [2]) was 84.98%. For the same compound, the “SL SDDA increase” value (P. acnes NCTC 737 [2]) was 18.25 mm, the “SL SDDA with TBHQ” value (P. acnes NCTC 737 [2]) was 68.94 mm and the DDA (P. acnes NCTC 737 [3]) was 47.77 mm. The “DDA + lipid” value (P. acnes NCTC 737 [3]) was 41.75 mm, the “DDA + salt” value (P. acnes NCTC 737 [3]) was 46.08 mm and the “DDA + salt & lipid” value (P. acnes NCTC 737 [3]) was 50.69 mm. For the same compound, the SDDA area increase (S. aureus ATCC 29213 [4]) was 61.52%, the SDDA increase (S. aureus ATCC 29213 [4]) was 10.95 mm and the “SDDA with TBHQ” value (S. aureus ATCC 29213 [4]) was 51.37 mm. For the same compound, the “SS SDDA area increase” value (S. aureus ATCC 29213 [4]) was 9.37%, the “SS SDDA increase” value (S. aureus ATCC 29213 [4]) was 2.00 mm and the “SS SDDA with TBHQ” value (S. aureus ATCC 29213 [4]) was 45.68 mm. The MBC (S. aureus ATCC 29213 [5]) was greater than 250 µg/mL, the MBC (P. acnes NCTC 737 [6]) was 31.25 µg/mL and the DDA (S. aureus ATCC 29213 [7]) was 0 mm. For the same compound, the “DDA + lipid” value (S. aureus ATCC 29213 [7]) was 0 mm, the “DDA + salt” value (S. aureus ATCC 29213 [7]) was 0 mm and the “DDA + salt & serum” value (S. aureus ATCC 29213 [7]) was 0 mm. For the same compound, the MIC (S. aureus ATCC 29213 [8]) was 250 µg/mL and the MIC/MBC ratio (S. aureus ATCC 29213 [8]) was less than 1.
In the case of Copper (II) silicate, the MIC (P. acnes NCTC 737 [1]; [9]) is reported as 4.84 µg/mL, the MIC/MBC ratio (P. acnes NCTC 737 [1]; [9]) is reported as 0.125 and the “SL SDDA with TBHQ” value (P. acnes NCTC 737 [2]; [10]) is reported as 54.96 mm. The “SDDA with TBHQ” value (P. acnes NCTC 737 [2]; [11]) was 54.44 mm, the SDDA increase (P. acnes NCTC 737 [2]; [12]) was 8.76 mm and the “SL SDDA area increase” value (P. acnes NCTC 737 [2]; [13]) was 26.80%. For the same compound, the “SL SDDA increase” value (P. acnes NCTC 737 [2]; [13]) was 6.15 mm, the SDDA area increase (P. acnes NCTC 737 [2]; [14]) was 42.03% and the “DDA + salt & lipid” value (P. acnes NCTC 737 [3]; Example 8, single compound, salt and 1% (v/v) triolein) was 42.56 (±2.18) mm. For the same compound, the “DDA + lipid” value (P. acnes NCTC 737 [3]; [15]) was 33.40 mm, the “DDA + salt & lipid” value (P. acnes NCTC 737 [3]; [16]) was 48.81 mm and the “DDA + salt” value (P. acnes NCTC 737 [3]; [17]) was 41.44 mm. For the same compound, the “SS SDDA with TBHQ” value (S. aureus ATCC 29213 [4]; [18]) was 57.26 mm, the “SDDA with TBHQ” value (S. aureus ATCC 29213 [4]; [11]) was 71.79 mm and the SDDA increase (S. aureus ATCC 29213 [4]; [12]) was 31.37 mm. For the same compound, the “SS SDDA area increase” value (S. aureus ATCC 29213 [4]; [19]) was 71.85%, the “SS SDDA increase” value (S. aureus ATCC 29213 [4]; [19]) was 13.58 mm and the SDDA area increase (S. aureus ATCC 29213 [4]; [14]) was 215.45%. For the same compound, the MBC (S. aureus ATCC 29213 [5]; [20]) was greater than 77.5 µg/mL, the MBC (P. acnes NCTC 737 [6]; [9]) was 38.75 µg/mL and the “DDA + salt & serum” value (S. aureus ATCC 29213 [7]; Example 9, single compound, salt and serum) was 0.00 (±0.00) mm. The “DDA + lipid” value (S. aureus ATCC 29213 [7]; [21]) was 0 mm, the “DDA + salt & serum” value (S. aureus ATCC 29213 [7]; [22]) was 0 mm and the “DDA + salt” value (S. aureus ATCC 29213 [7]; [17]) was 0 mm. It also gave an MIC (S. aureus ATCC 29213 [8]; [20]) greater than 77.5 µg/mL.
